The NIST ThermoML archive (doi:10.1016/j.fluid.2015.07.030)
± gives the expanded uncertainty stated by the source.

Experiment: xn = mol fraction of the nth substance listed
Conditions: 95.99 kPa, Liquid, Vibrating tube method

For `OCCOCCOCCO` [triethylene glycol] + O, the mass density (293.15 K, x2 = 0) was 1123.12 ± 0.25 kg/m3, the mass density (293.15 K, x2 = 0.1056) was 1122.61 ± 0.25 kg/m3 and the mass density (293.15 K, x2 = 0.2069) was 1121.88 ± 0.25 kg/m3. The mass density (293.15 K, x2 = 0.3103) was 1120.77 ± 0.24 kg/m3, the mass density (293.15 K, x2 = 0.4843) was 1118.69 ± 0.24 kg/m3 and the mass density (293.15 K, x2 = 0.5016) was 1118.43 ± 0.24 kg/m3. For the same compound, the mass density (293.15 K, x2 = 0.5952) was 1116.29 ± 0.24 kg/m3, the mass density (293.15 K, x2 = 0.6015) was 1116.07 ± 0.24 kg/m3 and the mass density (293.15 K, x2 = 0.6787) was 1112.29 ± 0.23 kg/m3. It also gave a mass density (293.15 K, x2 = 0.7835) of 1102.7 ± 0.22 kg/m3, a mass density (293.15 K, x2 = 0.8183) of 1096.95 ± 0.23 kg/m3 and a mass density (293.15 K, x2 = 0.8472) of 1090.49 ± 0.23 kg/m3. The mass density (293.15 K, x2 = 0.8719) was 1083.52 ± 0.22 kg/m3, the mass density (293.15 K, x2 = 0.8925) was 1076.28 ± 0.22 kg/m3 and the mass density (293.15 K, x2 = 0.9106) was 1068.64 ± 0.22 kg/m3. For the same compound, the mass density (293.15 K, x2 = 0.9254) was 1061.24 ± 0.22 kg/m3, the mass density (293.15 K, x2 = 0.9303) was 1058.23 ± 0.22 kg/m3 and the mass density (293.15 K, x2 = 0.939) was 1053.42 ± 0.22 kg/m3. It also gave a mass density (293.15 K, x2 = 0.951) of 1045.41 ± 0.21 kg/m3, a mass density (293.15 K, x2 = 0.9599) of 1037.69 ± 0.21 kg/m3 and a mass density (293.15 K, x2 = 0.9707) of 1029.87 ± 0.21 kg/m3. The mass density (293.15 K, x2 = 0.979) was 1021.78 ± 0.21 kg/m3, the mass density (293.15 K, x2 = 0.9866) was 1013.57 ± 0.21 kg/m3 and the mass density (293.15 K, x2 = 0.9936) was 1005.7 ± 0.21 kg/m3. It also gave a mass density (298.15 K, x2 = 0) of 1119.01 ± 0.25 kg/m3, a mass density (298.15 K, x2 = 0.1056) of 1118.31 ± 0.25 kg/m3 and a mass density (298.15 K, x2 = 0.2069) of 1117.53 ± 0.25 kg/m3. For the same compound, the mass density (298.15 K, x2 = 0.3103) was 1116.52 ± 0.24 kg/m3, the mass density (298.15 K, x2 = 0.4843) was 1114.57 ± 0.24 kg/m3 and the mass density (298.15 K, x2 = 0.5016) was 1114.12 ± 0.24 kg/m3. The mass density (298.15 K, x2 = 0.5952) was 1111.83 ± 0.24 kg/m3, the mass density (298.15 K, x2 = 0.6015) was 1111.61 ± 0.24 kg/m3 and the mass density (298.15 K, x2 = 0.6787) was 1107.99 ± 0.23 kg/m3. For the same compound, the mass density (298.15 K, x2 = 0.7835) was 1098.52 ± 0.23 kg/m3, the mass density (298.15 K, x2 = 0.8183) was 1092.99 ± 0.23 kg/m3 and the mass density (298.15 K, x2 = 0.8472) was 1086.81 ± 0.23 kg/m3. For the same compound, the mass density (298.15 K, x2 = 0.8719) was 1080.07 ± 0.23 kg/m3, the mass density (298.15 K, x2 = 0.8925) was 1073.04 ± 0.22 kg/m3 and the mass density (298.15 K, x2 = 0.9106) was 1065.62 ± 0.22 kg/m3. The mass density (298.15 K, x2 = 0.9254) was 1058.41 ± 0.22 kg/m3, the mass density (298.15 K, x2 = 0.9303) was 1055.05 ± 0.22 kg/m3 and the mass density (298.15 K, x2 = 0.939) was 1050.36 ± 0.22 kg/m3. For the same compound, the mass density (298.15 K, x2 = 0.951) was 1042.85 ± 0.22 kg/m3, the mass density (298.15 K, x2 = 0.9599) was 1036.35 ± 0.21 kg/m3 and the mass density (298.15 K, x2 = 0.9707) was 1027.7 ± 0.21 kg/m3. It also gave a mass density (298.15 K, x2 = 0.979) of 1019.75 ± 0.21 kg/m3, a mass density (298.15 K, x2 = 0.9866) of 1011.61 ± 0.21 kg/m3 and a mass density (298.15 K, x2 = 0.9936) of 1003.82 ± 0.21 kg/m3. The mass density (303.15 K, x2 = 0) was 1114.79 ± 0.25 kg/m3, the mass density (303.15 K, x2 = 0.1056) was 1114.09 ± 0.25 kg/m3 and the mass density (303.15 K, x2 = 0.2069) was 1113.37 ± 0.24 kg/m3. It also gave a mass density (303.15 K, x2 = 0.3103) of 1112.38 ± 0.24 kg/m3, a mass density (303.15 K, x2 = 0.4843) of 1110.18 ± 0.24 kg/m3 and a mass density (303.15 K, x2 = 0.5016) of 1109.85 ± 0.24 kg/m3. The mass density (303.15 K, x2 = 0.5952) was 1107.57 ± 0.24 kg/m3, the mass density (303.15 K, x2 = 0.6015) was 1107.35 ± 0.24 kg/m3 and the mass density (303.15 K, x2 = 0.6787) was 1103.97 ± 0.23 kg/m3. It also gave a mass density (303.15 K, x2 = 0.7835) of 1094.74 ± 0.23 kg/m3, a mass density (303.15 K, x2 = 0.8183) of 1089.46 ± 0.23 kg/m3 and a mass density (303.15 K, x2 = 0.8472) of 1083.32 ± 0.23 kg/m3. It also gave a mass density (303.15 K, x2 = 0.8719) of 1076.78 ± 0.23 kg/m3, a mass density (303.15 K, x2 = 0.8925) of 1069.94 ± 0.23 kg/m3 and a mass density (303.15 K, x2 = 0.9106) of 1062.7 ± 0.22 kg/m3. The mass density (303.15 K, x2 = 0.9254) was 1055.66 ± 0.22 kg/m3, the mass density (303.15 K, x2 = 0.9303) was 1052.47 ± 0.22 kg/m3 and the mass density (303.15 K, x2 = 0.939) was 1048.08 ± 0.22 kg/m3. The mass density (303.15 K, x2 = 0.951) was 1040.42 ± 0.22 kg/m3, the mass density (303.15 K, x2 = 0.9599) was 1034.04 ± 0.22 kg/m3 and the mass density (303.15 K, x2 = 0.9707) was 1025.28 ± 0.21 kg/m3. The mass density (303.15 K, x2 = 0.979) was 1017.72 ± 0.21 kg/m3, the mass density (303.15 K, x2 = 0.9866) was 1009.56 ± 0.21 kg/m3 and the mass density (303.15 K, x2 = 0.9936) was 1001.99 ± 0.21 kg/m3. It also gave a mass density (308.15 K, x2 = 0) of 1110.81 ± 0.25 kg/m3, a mass density (308.15 K, x2 = 0.1056) of 1109.99 ± 0.25 kg/m3 and a mass density (308.15 K, x2 = 0.2069) of 1109.16 ± 0.24 kg/m3. The mass density (308.15 K, x2 = 0.3103) was 1108.31 ± 0.24 kg/m3, the mass density (308.15 K, x2 = 0.4843) was 1106.08 ± 0.24 kg/m3 and the mass density (308.15 K, x2 = 0.5016) was 1105.68 ± 0.24 kg/m3. For the same compound, the mass density (308.15 K, x2 = 0.5952) was 1103.19 ± 0.23 kg/m3, the mass density (308.15 K, x2 = 0.6015) was 1102.97 ± 0.23 kg/m3 and the mass density (308.15 K, x2 = 0.6787) was 1099.53 ± 0.23 kg/m3. It also gave a mass density (308.15 K, x2 = 0.7835) of 1090.2 ± 0.23 kg/m3, a mass density (308.15 K, x2 = 0.8183) of 1084.98 ± 0.23 kg/m3 and a mass density (308.15 K, x2 = 0.8472) of 1078.84 ± 0.23 kg/m3. It also gave a mass density (308.15 K, x2 = 0.8719) of 1072.37 ± 0.22 kg/m3, a mass density (308.15 K, x2 = 0.8925) of 1065.64 ± 0.22 kg/m3 and a mass density (308.15 K, x2 = 0.9106) of 1058.54 ± 0.22 kg/m3. It also gave a mass density (308.15 K, x2 = 0.9254) of 1051.66 ± 0.22 kg/m3, a mass density (308.15 K, x2 = 0.9303) of 1049.13 ± 0.22 kg/m3 and a mass density (308.15 K, x2 = 0.939) of 1044.27 ± 0.22 kg/m3. For the same compound, the mass density (308.15 K, x2 = 0.951) was 1036.82 ± 0.21 kg/m3, the mass density (308.15 K, x2 = 0.9599) was 1030.61 ± 0.21 kg/m3 and the mass density (308.15 K, x2 = 0.9707) was 1022.68 ± 0.21 kg/m3. For the same compound, the mass density (308.15 K, x2 = 0.979) was 1014.8 ± 0.21 kg/m3, the mass density (308.15 K, x2 = 0.9866) was 1007.37 ± 0.21 kg/m3 and the mass density (308.15 K, x2 = 0.9936) was 999.97 ± 0.21 kg/m3. For the same compound, the mass density (313.15 K, x2 = 0) was 1106.7 ± 0.3 kg/m3, the mass density (313.15 K, x2 = 0.1056) was 1105.84 ± 0.24 kg/m3 and the mass density (313.15 K, x2 = 0.2069) was 1105.25 ± 0.24 kg/m3. For the same compound, the mass density (313.15 K, x2 = 0.3103) was 1104.34 ± 0.24 kg/m3, the mass density (313.15 K, x2 = 0.4843) was 1101.98 ± 0.24 kg/m3 and the mass density (313.15 K, x2 = 0.5016) was 1101.69 ± 0.23 kg/m3. It also gave a mass density (313.15 K, x2 = 0.5952) of 1099.18 ± 0.23 kg/m3, a mass density (313.15 K, x2 = 0.6015) of 1098.96 ± 0.23 kg/m3 and a mass density (313.15 K, x2 = 0.6787) of 1095.62 ± 0.24 kg/m3. For the same compound, the mass density (313.15 K, x2 = 0.7835) was 1086.93 ± 0.23 kg/m3, the mass density (313.15 K, x2 = 0.8183) was 1081.89 ± 0.23 kg/m3 and the mass density (313.15 K, x2 = 0.8472) was 1076.08 ± 0.22 kg/m3. For the same compound, the mass density (313.15 K, x2 = 0.8719) was 1069.93 ± 0.22 kg/m3, the mass density (313.15 K, x2 = 0.8925) was 1063.47 ± 0.22 kg/m3 and the mass density (313.15 K, x2 = 0.9106) was 1056.6 ± 0.22 kg/m3. The mass density (313.15 K, x2 = 0.9254) was 1049.89 ± 0.21 kg/m3, the mass density (313.15 K, x2 = 0.9303) was 1047.41 ± 0.21 kg/m3 and the mass density (313.15 K, x2 = 0.939) was 1042.63 ± 0.21 kg/m3. For the same compound, the mass density (313.15 K, x2 = 0.951) was 1035.27 ± 0.21 kg/m3, the mass density (313.15 K, x2 = 0.9599) was 1029.11 ± 0.21 kg/m3 and the mass density (313.15 K, x2 = 0.9707) was 1019.99 ± 0.21 kg/m3. For the same compound, the mass density (313.15 K, x2 = 0.979) was 1013.28 ± 0.21 kg/m3, the mass density (313.15 K, x2 = 0.9866) was 1005.16 ± 0.21 kg/m3 and the mass density (313.15 K, x2 = 0.9936) was 997.49 ± 0.21 kg/m3.
